Measurements from US20240226122A9, “TREATMENT OF GASTROINTESTINAL DISORDERS” (Greenspace Labs, Inc., priority 2022, published 2024).

Test: Micro evaporation screening, re-dissolution of API:polymer matrices
Format: physicochemical
Protocol: Micro evaporation screening experiments were done by dissolving API and polymer in an organic solvent and mixed in centrifuge tubes. Then the solvent was removed using vacuum concentrator. Samples were then mixed for 4, 10, and 30 minutes using phosphate buffer pH 6.8 as a reconstitution medium. For Eudragit S100 phosphate buffer pH 7.4 was used as a reconstitution media, citrate buffer pH 4.5 was used for Eudragit EPO. Phosphate buffer pH 6.8 was used for the rest of the polymers. Samples were mixed for 4, 10, and 30 minutes. Analysis was done by UV spectrometry to measure re-dissolution behavior of polymer system.
Several organic solvents were screened for the micro evaporation screening trials including acetone, tetrahydrofuran, dichloromethane, methanol, and ethanol.
Round 1 matrix Screening • 30:70 API:Soluplus • 30:70 API:Eudragit EPO • 30:70 API:Kollidon VA 64 • 25:75 API:PVP K30 • 25:75 API:Eudragit S100
Round 2 matrix screening with surfactants
Surfactants/solubilizers (5-10%) were screened for enhancement of spring-parachute effect, which is a strategy used in the pharmaceutical formulation to improve the solubility and bioavailability of poorly-soluble drugs: • PEG 1500 • Poloxamer 407 (HLB˜18) • SLS (HLB˜40) • Kolliphor RH40 (HLB−15) • TPGS (HLB˜13)
CBD Miniaturized Screening Experiment—Micro Evaporation Matrices screened: • API:Soluplus (30:70) • API:Eudragit EPO (30:70) • API:PVP K30 (25:75) • API:Eudragit S100 (25:75) • API:Kollidon VA64 (10:90) • API+Kollidon VA64+PEG1500 (10:85:5) • API+Kollidon VA64+SLS (10:85:5) • API+Kollidon VA64+Kolliphor RH40 (10:85:5) • API+Kollidon VA64+TPGS (10:85:5) • API+Kollidon VA64+Poloxamer 407 (10:85:5)
CBDA Miniaturized Screening Experiment—Micro Evaporation Matrices screened: • API:Eudragit EPO (30:70) • API:PVP K30 (30:70) • API:Soluplus (30:70) • API:Eudragit S100 (30:70) • API:Kollidon VA64 (25:75) • API+Kollidon VA64+PEG1500 (25:70:5) • API+Kollidon VA64+SLS (25:70:5) • API+Kollidon VA64+Kolliphor RH40 (25:70:5) • API+Kollidon VA64+TPGS (25:70:5) • API+Kollidon VA64+Poloxamer 407 (25:70:5)

For `C=C(C)[C@@H]1CCC(C)=C[C@H]1c1c(O)cc(CCCCC)cc1O` [CBD, cannabidiol, reference compound], the “re-dissolution of API from matrix” value (CBD matrix with Kollidon VA64, at 10 min, 1 mg API per tube) was “complete dissolution”.

In the case of `C=C(C)[C@@H]1CCC(C)=C[C@H]1c1c(O)cc(CCCCC)c(C(=O)O)c1O` [CBDA, cannabidiolic acid], the dissolution concentration (CBDA matrix with Kollidon VA64 with addition of SLS, Kolliphor RH40, 10 and 30 min timepoints) was 490 to 500 µg/mL.

In the case of `CCCCCc1cc(O)c(C/C=C(\C)CCC=C(C)C)c(O)c1C(=O)O` [CBGA, cannabigerolic acid], the dissolution concentration (CBGA matrix with Kollidon VA64 with addition of SLS and Poloxamer 407) was 520 to 550 µg/mL.
